Laboratory results as given in PubChem BioAssay AID248 (DTP/NCI, 2004).
“And” between values parts separate entries of the source, which are not always exact repeats. Identical values can stand only once. Toxic doses and inconclusive results are not listed. Rule as the data show it: active = T/C of 150% or more; inactive = T/C below 125%.

Tested on: L1210 leukemia ip in BDF1 mice, survival T/C
Assay: NCI In Vivo Anticancer Drug Screen. Data for tumor model L1210 Leukemia (intraperitoneal) in B6D2F1 (BDF1) mice
Details: endpoint: mean survival time, higher = longer survival
Procedure, shortened: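 Value reflects the ratio of survival in compound-treated mice to survival in vehicle-treated controls, with both groups carrying the same transplanted tumor.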

[1] = dose: 100.0 mg/kg/injection, schedule: Q04DX003 (ip), vehicle: Klucel (hydroxypropylcellulose) (HPC)
[2] = dose: 200.0 mg/kg/injection, schedule: Q04DX003 (ip), vehicle: Klucel (hydroxypropylcellulose) (HPC)
[3] = dose: 100.0 mg/kg/injection, schedule: Q01DX009 (ip), vehicle: saline with Tween-80
[4] = dose: 100.0 mg/kg/injection, schedule: Q04DX003 (ip), vehicle: saline with Tween-80
[5] = dose: 200.0 mg/kg/injection, schedule: Q01DX009 (ip), vehicle: saline with Tween-80
[6] = dose: 200.0 mg/kg/injection, schedule: Q04DX003 (ip), vehicle: saline with Tween-80
[7] = dose: 400.0 mg/kg/injection, schedule: Q01DX009 (ip), vehicle: saline with Tween-80
[8] = dose: 400.0 mg/kg/injection, schedule: Q04DX003 (ip), vehicle: saline with Tween-80
[9] = dose: 100.0 mg/kg/injection, schedule: Q01DX001 (ip), vehicle: saline
[10] = dose: 200.0 mg/kg/injection, schedule: Q01DX001 (ip), vehicle: saline
[11] = dose: 400.0 mg/kg/injection, schedule: Q01DX001 (ip), vehicle: saline
[12] = dose: 100.0 mg/kg/injection, schedule: Q04DX002 (ip), vehicle: saline with Tween-80
[13] = dose: 200.0 mg/kg/injection, schedule: Q04DX002 (ip), vehicle: saline with Tween-80
[14] = dose: 100.0 mg/kg/injection, schedule: Q01DX009 (ip), vehicle: saline
[15] = dose: 100.0 mg/kg/injection, schedule: Q04DX002 (ip), vehicle: Klucel (hydroxypropylcellulose) (HPC)
[16] = dose: 200.0 mg/kg/injection, schedule: Q04DX002 (ip), vehicle: Klucel (hydroxypropylcellulose) (HPC)
[17] = dose: 400.0 mg/kg/injection, schedule: Q04DX002 (ip), vehicle: Klucel (hydroxypropylcellulose) (HPC)
[18] = dose: 400.0 mg/kg/injection, schedule: Q04DX002 (ip), vehicle: saline with Tween-80
[19] = dose: 100.0 mg/kg/injection, schedule: Q04DX003 (ip), vehicle: saline sonified
[20] = dose: 200.0 mg/kg/injection, schedule: Q04DX003 (ip), vehicle: saline sonified
[21] = dose: 400.0 mg/kg/injection, schedule: Q04DX003 (ip), vehicle: saline sonified

Measured: T/C

COc1ccc(C(C#N)N2CCCC2)cc1 (configuration not stated)
inactive: dose: 6.25 mg/kg/injection, schedule: Q01DX009 (ip), vehicle: other 95 % of control | dose: 6.25 mg/kg/injection, schedule: Q04DX003 (ip), vehicle: other 98 % of control | dose: 12.5 mg/kg/injection, schedule: Q01DX009 (ip), vehicle: other 95 % of control | dose: 12.5 mg/kg/injection, schedule: Q04DX003 (ip), vehicle: other 104 % of control | dose: 25.0 mg/kg/injection, schedule: Q04DX003 (ip), vehicle: other 96 % of control

NC(=O)NC(=O)NC1CCCCC1
inactive: [1] 102 % of control | [2] 102 % of control | dose: 400.0 mg/kg/injection, schedule: Q04DX003 (ip), vehicle: Klucel (hydroxypropylcellulose) (HPC) 100 % of control

NC(=O)c1nc2c([nH]c1=O)CCCC2
inactive: [3] 94 % of control | [4] 93 % of control | [5] 94 % of control | [6] 94 % of control | [7] 94 % of control | [8] 94 % of control

CCCCCCCCCCCCCCCC1=C(O)c2ccccc2C(=O)C1=O
inactive: [9] 112 % of control | [10] 101 % of control | [11] 103 % of control

CCCCCCCCCCC1CCCCC1
inactive: dose: 50.0 mg/kg/injection, schedule: Q04DX002 (ip), vehicle: saline with Tween-80 91 % of control | [12] 91 % of control | [13] 98 % of control

C#CCN
inactive: [9] 103 % of control | [14] 94 % of control | [10] 102 % of control | dose: 200.0 mg/kg/injection, schedule: Q01DX009 (ip), vehicle: saline 96 % of control | [11] 102 % of control | dose: 400.0 mg/kg/injection, schedule: Q01DX009 (ip), vehicle: saline 93 % of control

Nc1cc(Cl)c(S(=O)(=O)O)cc1Cl
inactive: dose: 50.0 mg/kg/injection, schedule: Q01DX009 (ip), vehicle: saline with Tween-80 90 % of control | [9] 95 % of control | [3] 107 % of control | [15] 100 % of control | [10] 86 % of control | [5] 97 % of control | [16] 91 % of control | [17] 88 % of control

O=C(O)c1ccccc1Cc1ccccc1
inactive: [15] 94 % of control | [16] 98 % of control | [17] 100 % of control

CCN(CC)CC(=O)NCC(CCN1CCCCC1)(CC(C)C)c1cccc2ccccc12 (configuration not stated)
inactive: dose: 25.0 mg/kg/injection, schedule: Q01DX009 (ip), vehicle: saline 102 % of control | dose: 50.0 mg/kg/injection, schedule: Q01DX009 (ip), vehicle: saline 105 % of control | [14] 114 % of control

Clc1nc2ccccc2c2ccccc12
inactive: dose: 43.0 mg/kg/injection, schedule: Q01DX001 (ip), vehicle: carboxymethylcellulose (CMC) 96 % of control | dose: 85.0 mg/kg/injection, schedule: Q01DX001 (ip), vehicle: carboxymethylcellulose (CMC) 92 % of control | dose: 170.0 mg/kg/injection, schedule: Q01DX001 (ip), vehicle: carboxymethylcellulose (CMC) 92 % of control

CCCCCCCCCCCCC/C=C/CC(CC(=O)O)C(=O)Nc1ccc(-n2c(=O)cc(C)n2C)cc1 (configuration not stated)
inactive: [4] 92 % of control | [6] 94 % of control | [8] 92 % of control

COc1ccc(-c2c(-c3ccccc3)oc3ccc4ccccc4c23)cc1
inactive: [3] 87 % of control | [5] 93 % of control | [7] 92 % of control

O=C(OC1CCOCC1OC(=O)c1ccccc1)c1ccccc1 (configuration not stated)
inactive: [12] 100 % of control | [13] 100 % of control | [18] 96 % of control

CC1CC(C)(C)N=C(C(C)(C)c2ccccc2)O1 (configuration not stated)
inactive: [19] 102 % of control | [20] 103 % of control | [21] 98 % of control

CC(C)CP(=O)(CC(C)C)C1CCCCC1
inactive: [4] 97 % of control | [6] 99 % of control

COc1ccc2c(c1)[nH]c1c(C)nccc12
inactive: dose: 75.0 mg/kg/injection, schedule: Q01DX Z (ip), vehicle: saline 96 % of control | dose: 150.0 mg/kg/injection, schedule: Q01DX Z (ip), vehicle: saline 100 % of control | dose: 300.0 mg/kg/injection, schedule: Q01DX Z (ip), vehicle: saline 96 % of control and 108 % of control

CC1=CC(C)(C)Nc2ccc(Nc3ccccc3)cc21
inactive: dose: 75.0 mg/kg/injection, schedule: Q01DX001 (ip), vehicle: saline 101 % of control | dose: 150.0 mg/kg/injection, schedule: Q01DX001 (ip), vehicle: saline 96 % of control

CCCCCCCCC/C(=N\Nc1ccc([N+](=O)[O-])cc1[N+](=O)[O-])c1ccccc1
inactive: [19] 108 % of control | [20] 98 % of control | [21] 108 % of control

Cc1c(Cl)cccc1NC(=O)c1c(Cl)c(Cl)c(Cl)c(Cl)c1C(=O)O
inactive: dose: 100.0 mg/kg/injection, schedule: Q01DX009 (ip), vehicle: Klucel (hydroxypropylcellulose) (HPC) 102 % of control | dose: 200.0 mg/kg/injection, schedule: Q01DX009 (ip), vehicle: Klucel (hydroxypropylcellulose) (HPC) 103 % of control

O=[N+]([O-])c1ccccc1C1=Cc2cccn2-c2ccccc2S1(=O)=O
inactive: [1] 95 % of control | [2] 100 % of control

CCCCNC(=O)N(CC)c1cccc(C)c1
inactive: [15] 105 % of control | [16] 118 % of control | [17] 102 % of control

Cc1ccc(Nc2cc(Br)c(N)c3c2C(=O)c2ccccc2C3=O)cc1
inactive: dose: 100.0 mg/kg/injection, schedule: Q01DX001 (ip), vehicle: saline with Tween-80 103 % of control | [3] 93 % of control and 94 % of control | [12] 92 % of control | [4] 97 % of control | dose: 200.0 mg/kg/injection, schedule: Q01DX001 (ip), vehicle: saline with Tween-80 102 % of control | [5] 93 % of control and 94 % of control | [13] 86 % of control | [6] 95 % of control | dose: 400.0 mg/kg/injection, schedule: Q01DX001 (ip), vehicle: saline with Tween-80 91 % of control | [7] 96 % of control and 97 % of control | [18] 86 % of control | [8] 90 % of control

CC(N)(CCCC(=O)O)C(=O)O (configuration not stated)
inactive: dose: 176.0 mg/kg/injection, schedule: Q01DX001 (ip), vehicle: carboxymethylcellulose (CMC) 95 % of control | dose: 264.0 mg/kg/injection, schedule: Q01DX001 (ip), vehicle: carboxymethylcellulose (CMC) 100 % of control | dose: 400.0 mg/kg/injection, schedule: Q01DX001 (ip), vehicle: carboxymethylcellulose (CMC) 95 % of control | dose: 600.0 mg/kg/injection, schedule: Q01DX001 (ip), vehicle: carboxymethylcellulose (CMC) 98 % of control

Cc1cc(C)nc(/N=C(/N)Nc2ccc(S(=O)(=O)NC(=O)Nc3ccccc3)cc2)n1
inactive: [9] 92 % of control | [10] 98 % of control | [11] 102 % of control

Nc1nc(N)c2cc(N3CCCC3c3ccc(Cl)cc3)ccc2n1 (configuration not stated)
inactive: dose: 25.0 mg/kg/injection, schedule: Q01DX009 (ip), vehicle: water 87 % of control

CCC(C)NC(=O)/C=C\C(=O)O (configuration not stated)
inactive: [12] 95 % of control | [13] 92 % of control | [18] 100 % of control

O=C(Nc1ccc(Nc2ccccc2)cc1)Nc1cccc(F)c1
inactive: [3] 88 % of control | [5] 96 % of control
